Reference: patent US20090176701A1, “Anti-microbial agents that interact with the complement system” (priority 2005, published 2009)

How the values were obtained:
Assay type in all cases: cell-based
E. coli O18:K1:H7 [1] = test: Bacterial killing assay in 10% blood; parameters: CFU / CFU (Range) / CFU 1 hour / CFU 3 hours / CFU 5 hours / CFU 3 hour: scale not given here; details: for CFU 1 hour / CFU 3 hours: Table 5, 3000 CFU; for CFU 1 hour: blood 3.4; for CFU 3 hours: blood 4.2; for CFU 5 hours / CFU 3 hour: Table 6; for CFU (Range): Table 9
Description: TFPI was incubated with α-thrombin, plasmin, elastase and cathepsin G in 10% blood and tested for bacterial killing activity against E. coli O18:K1:H7 as follows. Recombinant TFPI at 5 μM (unless indicated otherwise), was treated with plasmin (100 nM, lane 3) and α-thrombin (100 nM, lane 7; 1 μM, lane 8) (A), elastase (100 nM, lanes 3 and 4) (B), and cathepsin G (100 nM, lane 4; 1 μM, lanes 5, 6 and 7) (C) in a total volume of 180 μl. The reaction contained TFPI diluted in RPMI 1640 without phenol red, 25 mM Hepes, pH 7.5 (RPMI), 3000 CFU E. coli O18:K1:H7 in 40 μl PBS, and diluted enzyme in 20 μl RPMI. The volume was adjusted with RPMI. The samples were pre-incubated for 15-30 minutes before the addition of anti-coagulant-free fresh blood to a final volume of 200 μl. Controls were 10% blood in RPMI, TFPI at 1, 2 and 5 μM, and the enzymes alone at the respective concentrations. The samples were incubated for 4 hours at 37° C. with 5% CO2 in a humidified incubator and serial dilutions plated on Tryptase soy agar plates. The number of bacterial colonies was determined after overnight incubation at 37° C. All experimental conditions are run in duplicate. The data represent the average colony number.
The 18 μl aliquots were diluted to 10 μM TFPI with 445 μl RPMI 1640 without phenolred, 25 mM Hepes, pH 7.5 (RPMI) and assayed at a final concentration of 5 μM in 200 μl reactions containing 3000 CFU E. coli in 40 μl PBS, 10% non-coagulated blood, and adjusted to the final volume with RPMI. Negative controls were 10% blood in RPMI, TFPI at 5 μM and cathepsin G at 400 nM. Anti-coagulant free blood was freshly drawn and added to the reaction as the last component. The samples were manipulated as described above.
Peptides were designed to test for bacterial killing activity localized in the C-terminal domain of TFPI. Activity was measured against Gram negative (E coli O18:K1:H7. ATCC 700973) bacteria in the presence of 10% blood as described above. Controls were RPMI with 10% blood and 100 nM Tifacogin. The biological activity was determined from the reduction of bacterial colonies, as above.
The three peptides #1, #2, & #3 were diluted in H2O to 10 fold their final assay concentration and incubated with bacteria for 4 hours, at the final concentrations of 3 μM, 300 nM 100 nM and 10 nM. E. coli was used at 3000 CFU/200 μl. Surviving colony numbers were determined as described in Example 1. […] Full-length TFPI has no activity against Gram negative bacteria in these assays at the concentrations tested.
Time-dependency: Peptides were incubated with 3000 CFU E. coli O18:K1:H7 at the indicated final concentrations in the presence of 10% blood in three parallel 200 μl reactions as described above. RPMI with 10% blood was used as negative control. After incubation for 1, 3, or 5 hours samples were assayed for the effect on bacterial survival by plating serial dilutions onto agar plates. […] The effect of peptides on bacterial survival increases over the time-span studied.
In these experiments, variable concentrations of E. coli O18:K1:H7 (3×10^3, 3×10^4 or 3×10^5 CFU/200 μl) were challenged with either 3 μM or 100 nM peptide #3 in RPMI/10% blood, and incubated for 3 or 5 hours before dilution and plating. Briefly, the bacteria were diluted to the indicated CFU in 40 μl PBS, the reactions assembled at a final volume of 200 μl as above, and incubated at 37° C. Serial dilutions of the reactions were plated and the colony number determined after overnight incubation. […] At 5 hours no effect on the high CFU culture was discernable, indicating a titration of the killing activity and the high CFU culture exceeding the capacity.

[2] = system: E. coli O7:K1(L):NM (ATCC 23503); test: Bacterial killing assay with normal human serum, additional strain; details: Table 3, peptide 3 μM, NHS control 5.3
Description: Peptide #3 was tested for activity at 3 μM on additional strains of E. coli using normal human serum as a control.

E. coli O18:K1:H7 [3] = test: Bacterial killing assay in serum or plasma (complement dependence)
E. coli O18:K1:H7 [4] = test: Bacterial killing assay without blood (growth medium); details: Table 4; no blood, peptide 3 μM; growth medium 6.2
Description: Peptides #1, #3 and #4 were tested for their activity without blood on E. coli O18:K1:H7. The peptides were assayed at 3 μM. The same blood and TFPI controls were included as in Experiment I.

Question: How did the “activity against O18ac:K1:H7 E. coli strain in blood” value (E. coli O18:K1:H7 [1]; 10% blood, 4 hours, concentrations tested 10 nM to 3 μM, peptide #5 compared to peptide #3) turn out when “GFIQRISKGGLIKTKRKRKKQRVKIAY (homo sapiens) [Peptide #3, TFPI aas 242-268]” was run?
Answer: active

Question: What about the CFU (E. coli O18:K1:H7 [1]; Table 1, peptide 300 nM, 10% blood, 3000 CFU/200 μl, 4 hours, blood control 5.1) of the same sequence?
Answer: 2.2

Question: What about the CFU (E. coli O18:K1:H7 [1]; Table 2, peptide 10 nM, 10% blood, blood control 3.5) of the same sequence?
Answer: 2.6

Question: What about the CFU (E. coli O18:K1:H7 [1]; Table 2, peptide 100 nM, 10% blood, blood control 3.5) of the same sequence?
Answer: 1.2

Question: And the “CFU 1 hour” value (E. coli O18:K1:H7 [1]; 300 nM, 10% blood)?
Answer: 3.3

Question: What about the “CFU 3 hours” value (E. coli O18:K1:H7 [1]; 300 nM, 10% blood) of the same sequence?
Answer: 1.2

Question: What about the “CFU 1 hour” value (E. coli O18:K1:H7 [1]; 3 μM, 10% blood) of the same sequence?
Answer: 3.2

Question: What about the “CFU 3 hours” value (E. coli O18:K1:H7 [1]; 3 μM, 10% blood) of the same sequence?
Answer: 0.2

Question: And the “CFU 5 hours” value (E. coli O18:K1:H7 [1]; 3000 bacteria, 100 nM, blood alone 3.4)?
Answer: 1.2

Question: And the “CFU 3 hour” value (E. coli O18:K1:H7 [1]; 3000 bacteria, 100 nM, blood alone 3.9)?
Answer: 2.3

Question: What about the “CFU 3 hour” value (E. coli O18:K1:H7 [1]; 30,000 bacteria, 100 nM, blood alone 5.1) of the same sequence?
Answer: 1.5

Question: And the “CFU 5 hours” value (E. coli O18:K1:H7 [1]; 30,000 bacteria, 100 nM, blood alone 6.3)?
Answer: 4.1

Question: What about the “CFU 3 hour” value (E. coli O18:K1:H7 [1]; 30,000 bacteria, 3 μM, blood alone 5.1) of the same sequence?
Answer: 1.1

Question: And the “CFU 5 hours” value (E. coli O18:K1:H7 [1]; 30,000 bacteria, 3 μM, blood alone 6.3)?
Answer: 3.6

Question: And the “CFU 3 hour” value (E. coli O18:K1:H7 [1]; 300,000 bacteria, 100 nM, blood alone 7.7)?
Answer: 7.5

Question: And the “CFU 5 hours” value (E. coli O18:K1:H7 [1]; 300,000 bacteria, 100 nM, blood alone 8.4)?
Answer: 9.1

Question: What about the “CFU 3 hour” value (E. coli O18:K1:H7 [1]; 300,000 bacteria, 3 μM, blood alone 7.7) of the same sequence?
Answer: 5.8

Question: And the “CFU 5 hours” value (E. coli O18:K1:H7 [1]; 300,000 bacteria, 3 μM, blood alone 8.4)?
Answer: 9.1

Question: And the CFU (E. coli O18:K1:H7 [1]; Table 7, blood at 20 μl, digested rTFPI 5 μM, peptide #3 in parallel, control 4.1)?
Answer: 1.5

Question: And the “CFU (Range)” value (E. coli O18:K1:H7 [1]; peptide 3 μm, Heparin, 3 U/mL)?
Answer: 5.5

Question: What about the “CFU (Range)” value (E. coli O18:K1:H7 [1]; peptide 3 μm, LMW heparin, 0.3 U/mL) of the same sequence?
Answer: 4.2 (4.1-4.2)

Question: And the “CFU (Range)” value (E. coli O18:K1:H7 [1]; peptide 3 μm, LMW heparin, 3 U/mL)?
Answer: 5.2 (5.2-5.3)

Question: And the “bacterial killing activity with un-fractionated heparin” value (E. coli O18:K1:H7 [1]; peptide 3 μm, un-fractionated heparin at 0.3 U/ml, data not shown)?
Answer: partial loss of bacterial killing activity

Question: What about the CFU [2] of the same sequence?
Answer: 2.9

Question: What about the “bacterial killing activity in CVF-treated serum” value (E. coli O18:K1:H7 [3]; FIG. 8C, 1 U/ml CVF) of the same sequence?
Answer: still preserved

Question: And the “bacterial killing activity in CVF-treated serum” value (E. coli O18:K1:H7 [3]; FIG. 8C, serum treated with 10 U/ml of CVF)?
Answer: lost

Question: And the “bacterial killing activity in serum” value (E. coli O18:K1:H7 [3]; FIG. 8C, untreated serum or serum incubated 30 minutes at room temperature without CVF)?
Answer: active

Question: What about the “bacterial killing activity in serum (rank)” value (E. coli O18:K1:H7 [3]; FIG. 8D, peptides serially diluted to 300 nM, and 30 nM in serum) of the same sequence?
Answer: strongest effect

Question: And the “bacterial killing activity in C4-deficient serum” value (E. coli O18:K1:H7 [3]; FIG. 9, C4-deficient guinea pig serum)?
Answer: completely devoid of bacterial killing activity

Question: What about the “bacterial killing activity in complement-depleted sera” value (E. coli O18:K1:H7 [3]; FIG. 9, serum depleted for C1q, C3, C6, C2, C9, or deficient for C4) of the same sequence?
Answer: loss

Question: And the “bacterial killing activity after add-back of complement factor” value (E. coli O18:K1:H7 [3]; FIGS. 9 C and D, purified C1 complex (2.34 μg) or factor C4 (6 μg) added back to the respective depleted/deficient serum)?
Answer: restored

Question: What about the CFU (E. coli O18:K1:H7 [3]; Table 7, serum at 40 μl, digested rTFPI 5 μM, peptide #3 in parallel, control 4.2) of the same sequence?
Answer: 1.2

Question: What about the CFU (E. coli O18:K1:H7 [3]; Table 8, Serum + 5 mM MgC12, 10 mM EDTA, control 4.4) of the same sequence?
Answer: 4.2

Question: And the “bacterial killing activity in chelated serum” value (E. coli O18:K1:H7 [3]; serum containing 10 mM EGTA and 5 mM MgCl2)?
Answer: no bacterial killing activity

Question: What about the “CFU (Range)” value (E. coli O18:K1:H7 [4]) of the same sequence?
Answer: 6.2 (6.1-6.2)
